In patent publication US20220313698A1, “MODULATORS OF CYSTIC FIBROSIS TRANSMEMBRANE CONDUCTANCE REGULATOR” (Vertex Pharmaceuticals Incorporated, priority 2019, published 2022):

Target: CFTR-mediated chloride transport (Homo sapiens, UniProt P13569)
Test: Corrector Assay A - membrane potential dye assay (enteroid cells)
Conditions: for Corrector Assay A % activity: % of chloride transport of triple combination control (1 μM (14S)-dispiro macrocycle + 3 μM tezacaftor + 300 nM ivacaftor); for EC50: read-out: Corrector Assay A EC50, human intestinal enteroid cells, 18-24 h incubation, acute 10 μM forskolin + 300 nM ivacaftor

SMILES | Corrector Assay A % activity | EC50
CC1(C)C[C@@H]2CC[C@@H](c3ccccn3)Nc3cccc(n3)S(=O)(=O)NC(=O)c3ccc(-c4c(F)cccc4Cl)nc3N1C2 [Compound 344] | ++ (++ is 30-60%) | < 1000 nM
CC(C)(C)c1ccc2c(n1)N1C[C@@H](CCC(C)(c3ccccn3)Nc3cccc(n3)S(=O)(=O)NC2=O)CC1(C)C (single isomer, unassigned) [Compound 44] | ++ (++ is 30-60%) | < 1000 nM
CC(C)(C)CCOc1cccc(-c2ccc3c(n2)N2C[C@@H](CC[C@H](c4ccccn4)Nc4cccc(n4)S(=O)(=O)NC3=O)CC2(C)C)n1 [Compound 310] | ++ (++ is 30-60%) | < 1000 nM
CC(=O)N1CCC(C2CC[C@@H]3CN(c4nc(C(C)(C)C)ccc4C(=O)NS(=O)(=O)c4cccc(n4)N2)C(C)(C)C3)CC1 (stereo partly drawn) [Compound 228, (14S)-17-(1-Acetylpiperidin-4-yl)-8-tert-butyl-12,12-dimethyl-2λ^6-thia-3,9,11,18,23-pentaazatetracyclo[17.3.1.111,14.05,10]tetracosa-1(23),5(10),6,8,19,21-hexaene-2,2,4-trione] | ++ (++ is 30-60%) | < 1000 nM
CC(C)(C)c1ccc2c(n1)N1CC(CCCNc3cncc(n3)S(=O)(=O)NC2=O)CC1(C)C (single isomer, unassigned) [Compound 252, 8-tert-butyl-12,12-dimethyl-2λ^6-thia-3,9,11,18,21,23-hexaazatetracyclo[17.3.1.111,14.05,10]tetracosa-1(22),5,7,9,19(23),20-hexaene-2,2,4-trione] | ++ (++ is 30-60%) | < 1000 nM
CC(C)(C)NCc1ccnc([C@@H]2CC[C@@H]3CN(c4nc(C(C)(C)C)ccc4C(=O)NS(=O)(=O)c4cccc(n4)N2)C(C)(C)C3)c1 (single isomer, unassigned) [Compound 62] | ++ (++ is 30-60%) | 1000 to 3000 nM
Cn1ccc(C2CC[C@@H]3CN(c4nc(C(C)(C)C)ccc4C(=O)NS(=O)(=O)c4cccc(n4)N2)C(C)(C)C3)n1 (single isomer, unassigned) [Compound 279] | +++ (+++ is >60%) | < 1000 nM
CC(C)(C)c1ccnc(C2CC[C@@H]3CN(c4nc(C(C)(C)C)ncc4C(=O)NS(=O)(=O)c4cccc(n4)N2)C(C)(C)C3)c1 (single isomer, unassigned) [Compound 1] | + (+ is <30%) | –
CC(C)(O)/C=C/CC1CC[C@@H]2CN(c3nc(C(C)(C)C)ccc3C(=O)NS(=O)(=O)c3cccc(n3)N1)C(C)(C)C2 (single isomer, unassigned) [Compound 24] | ++ (++ is 30-60%) | < 1000 nM
CN(C)CC(=O)N1CCC(C2CC[C@@H]3CN(c4nc(C(C)(C)C)ccc4C(=O)NS(=O)(=O)c4cccc(n4)N2)C(C)(C)C3)CC1 (stereo partly drawn) [Compound 236, (14S)-8-tert-butyl-17-{1-[2-(dimethylamino)acetyl]piperidin-4-yl}-12,12-dimethyl-2λ^6-thia-3,9,11,18,23-pentaazatetracyclo[17.3.1.111,14.05,10]tetracosa-1(23),5(10),6,8,19,21-hexaene-2,2,4-trione] | ++ (++ is 30-60%) | 1000 to 3000 nM
CC(C)(C)c1ccc2c(n1)N1C[C@@H](CCC(c3ccc(N4CCCCC4)cn3)Nc3cccc(n3)S(=O)(=O)NC2=O)CC1(C)C (some centres unmarked) [Compound 184] | +++ (+++ is >60%) | < 1000 nM
COc1cccc(-c2ccc3c(n2)N2C[C@@H](CC[C@@H](c4ccccn4)Nc4cccc(n4)S(=O)(=O)NC3=O)CC2(C)C)c1 [Compound 340] | ++ (++ is 30-60%) | 1000 to 3000 nM
CC1(C)OCCc2cc3c(nc21)N1C[C@@H](CCC(c2ccccn2)Nc2cccc(n2)S(=O)(=O)NC3=O)CC1(C)C (single isomer, unassigned) [Compound 213] | ++ (++ is 30-60%) | 1000 to 3000 nM
CC(C)(C)c1ccc2c(n1)N1C[C@@H](CCC(c3cc(Cl)ccn3)Nc3cccc(n3)S(=O)(=O)NC2=O)CC1(C)C (single isomer, unassigned) [Compound 127] | +++ (+++ is >60%) | < 1000 nM
CC(C)(C)c1ccc2c(n1)N1C[C@@H](CCC(c3ccc(N)cn3)Nc3cccc(n3)S(=O)(=O)NC2=O)CC1(C)C (some centres unmarked) [Compound 63] | +++ (+++ is >60%) | < 1000 nM
CC(C)(C)c1ccnc(C2CC[C@@H]3CN(c4nc(C(C)(C)C)ccc4C(=O)NS(=O)(=O)c4cccc(n4)N2)C(C)(C)C3)c1 (single isomer, unassigned) [Compound 75] | +++ (+++ is >60%) | < 1000 nM
CC(C)(C)c1ccc(C2CC[C@@H]3CN(c4nc(C(C)(C)C)ccc4C(=O)NS(=O)(=O)c4cccc(n4)N2)C(C)(C)C3)nc1 (single isomer, unassigned) [Compound 187] | ++ (++ is 30-60%) | < 1000 nM
Cn1ccc(C2CC[C@@H]3CN(c4nc(C(C)(C)C)ccc4C(=O)NS(=O)(=O)c4cccc(n4)N2)C(C)(C)C3)n1 (single isomer, unassigned) [Compound 278] | ++ (++ is 30-60%) | < 1000 nM
CC1(C)C[C@@H]2CC[C@H](c3ccccn3)Nc3cccc(n3)S(=O)(=O)NC(=O)c3ccc(C4=CCCCC4)nc3N1C2 [Compound 329] | +++ (+++ is >60%) | < 1000 nM
CC(C)(C)c1ccc2c(n1)N1C[C@@H](CCC(c3ccc(CCCN)cn3)Nc3cccc(n3)S(=O)(=O)NC2=O)CC1(C)C (some centres unmarked) [Compound 137] | ++ (++ is 30-60%) | < 1000 nM
Cn1nccc1-c1ccc(C2CC[C@@H]3CN(c4nc(C(C)(C)C)ccc4C(=O)NS(=O)(=O)c4cccc(n4)N2)C(C)(C)C3)nc1 (some centres unmarked) [Compound 57] | ++ (++ is 30-60%) | < 1000 nM
CC(C)(C)c1ccc2c(n1)N1C[C@@H](CCC(c3ccc(C4CCOCC4)cn3)Nc3cccc(n3)S(=O)(=O)NC2=O)CC1(C)C (some centres unmarked) [Compound 156] | ++ (++ is 30-60%) | < 1000 nM
COc1cccc(-c2ccc3c(n2)N2C[C@@H](CC[C@H](c4ccccn4)Nc4cccc(n4)S(=O)(=O)NC3=O)CC2(C)C)n1 [Compound 337] | +++ (+++ is >60%) | < 1000 nM
CC(C)(C)c1ccc2c(n1)N1C[C@@H](CC[C@@H](c3ncccc3Br)Nc3cccc(n3)S(=O)(=O)NC2=O)CC1(C)C (single isomer, unassigned) [Compound 53] | +++ (+++ is >60%) | < 1000 nM
